HELM strings list units from the 5' end as sugar, base in round brackets, then linkage (d deoxyribose, r ribose, m 2'-O-methyl, p phosphodiester). Strings are as the collection lists them; they lack the last nucleoside at the 3' end of the tested compound. [moe] = 2'-O-(2-methoxyethyl) (MOE); [sp] = phosphorothioate linkage; [m5C] = 5-methylcytosine

This data set addresses GFAP. The data set is described as follows: mouse, dose not given. Particulars: ASO.
As for “RNA1{[moe](A)[sp].[moe](A)p.[moe](A)p.[moe](G)p.[moe](G)p.[moe]([m5C])p.d(A)[sp].d([m5C])[sp].d(A)[sp].d(G)[sp].d(T)[sp].d(T)[sp].d([m5C])[sp].d([m5C])[sp].d([m5C])[sp].d(A)[sp].[moe](G)p.[moe](A)[sp].[moe](T)}$$$$ (last 3' nucleoside missing)”, the 3 h FOB score worked out at 2 score 0-7.

For “RNA1{[moe](A)[sp].[moe](A)p.[moe](A)p.[moe](G)p.[moe](G)p.d([m5C])[sp].d(A)[sp].d([m5C])[sp].d(A)[sp].d(G)[sp].d(T)[sp].d(T)[sp].d([m5C])[sp].d([m5C])[sp].d([m5C])[sp].[moe](A)p.[moe](G)p.[moe](A)[sp].[moe](T)}$$$$ (last 3' nucleoside missing)”, the 3 h FOB score was determined as 2 score 0-7.

Substance “RNA1{[moe](A)[sp].[moe](A)p.[moe](G)p.[moe](G)p.[moe]([m5C])p.[moe](A)p.d([m5C])[sp].d(A)[sp].d(G)[sp].d(T)[sp].d(T)[sp].d([m5C])[sp].d([m5C])[sp].d([m5C])[sp].d(A)[sp].d(G)[sp].[moe](A)p.[moe](T)[sp].[moe](A)}$$$$ (last 3' nucleoside missing)” had a 3 h FOB score of 2 score 0-7.

As for “RNA1{[moe](A)[sp].[moe](A)p.[moe](G)p.[moe]([m5C])p.[moe](T)[sp].d([m5C])[sp].d(T)[sp].d(G)[sp].d(A)[sp].d(G)[sp].d([m5C])[sp].d(T)[sp].d(G)[sp].d(T)[sp].d(G)[sp].[moe](G)p.[moe](T)p.[moe](G)[sp].[moe](T)}$$$$ (last 3' nucleoside missing)”, the 3 h FOB score is 4 score 0-7.

Take “RNA1{[moe](A)[sp].[moe](A)p.[moe](T)p.[moe]([m5C])p.[moe](A)[sp].d(A)[sp].d(G)[sp].d([m5C])[sp].d(T)[sp].d([m5C])[sp].d([m5C])[sp].d([m5C])[sp].d(A)[sp].d([m5C])[sp].d([m5C])[sp].[moe](T)p.[moe](G)p.[moe]([m5C])[sp].[moe]([m5C])}$$$$ (last 3' nucleoside missing)”: the 3 h FOB score was determined as 0 score 0-7.

Regarding “RNA1{[moe](A)[sp].[moe](A)p.[moe](T)p.[moe]([m5C])p.[moe](A)[sp].d(T)[sp].d(T)[sp].d(T)[sp].d([m5C])[sp].d(A)[sp].d(G)[sp].d(G)[sp].d(G)[sp].d([m5C])[sp].d([m5C])[sp].[moe](A)p.[moe](A)p.[moe](T)[sp].[moe](G)}$$$$ (last 3' nucleoside missing)”, the 3 h FOB score amounted to 5 score 0-7.

On to “RNA1{[moe](A)[sp].[moe](G)p.[moe](A)p.[moe](G)p.[moe](A)[sp].d(T)[sp].d(G)[sp].d(G)[sp].d(G)[sp].d(T)[sp].d(G)[sp].d(A)[sp].d(G)[sp].d(G)[sp].d(T)[sp].[moe](G)p.[moe](A)p.[moe](G)[sp].[moe](G)}$$$$ (last 3' nucleoside missing)”, for which the 3 h FOB score worked out at 7 score 0-7.

For the substance “RNA1{[moe](A)[sp].[moe](G)p.[moe](A)p.[moe](G)p.[moe](T)[sp].d(G)[sp].d(T)[sp].d(G)[sp].d(T)[sp].d(A)[sp].d(T)[sp].d(T)[sp].d(A)[sp].d(G)[sp].d(G)[sp].[moe](A)p.[moe](T)p.[moe]([m5C])[sp].[moe]([m5C])}$$$$ (last 3' nucleoside missing)”, the 3 h FOB score turned out to be 5 score 0-7.

Regarding “RNA1{[moe](A)[sp].[moe](G)p.[moe](A)p.[moe](G)p.d(T)[sp].d(G)[sp].d(T)[sp].d(G)[sp].d(T)[sp].d(A)[sp].d(T)[sp].d(T)[sp].d(A)[sp].d(G)[sp].[moe](G)p.[moe](A)p.[moe](T)p.[moe]([m5C])[sp].[moe]([m5C])}$$$$ (last 3' nucleoside missing)”, the 3 h FOB score is 5 score 0-7.

Consider “RNA1{[moe](A)[sp].[moe](G)p.[moe](A)p.[moe](T)p.[moe](A)[sp].d(T)[sp].d([m5C])[sp].d(T)[sp].d(T)[sp].d(G)[sp].d(T)[sp].d(G)[sp].d(A)[sp].d([m5C])[sp].d([m5C])[sp].[moe](T)p.[moe](T)p.[moe](G)[sp].[moe](T)}$$$$ (last 3' nucleoside missing)”, for which the 3 h FOB score stood at 6 score 0-7.

“RNA1{[moe](A)[sp].[moe](G)p.[moe](G)p.[moe](G)p.[moe](T)[sp].d(G)[sp].d(G)[sp].d([m5C])[sp].d(T)[sp].d(T)[sp].d([m5C])[sp].d(A)[sp].d(T)[sp].d([m5C])[sp].d(T)[sp].[moe](G)p.[moe]([m5C])p.[moe](T)[sp].[moe](T)}$$$$ (last 3' nucleoside missing)” showed a 3 h FOB score of 2 score 0-7.

“RNA1{[moe](A)[sp].[moe](G)p.[moe](G)p.[moe]([m5C])p.[moe](A)p.[moe]([m5C])p.d(A)[sp].d(G)[sp].d(T)[sp].d(T)[sp].d([m5C])[sp].d([m5C])[sp].d([m5C])[sp].d(A)[sp].d(G)[sp].d(A)[sp].[moe](T)p.[moe](A)[sp].[moe]([m5C])}$$$$ (last 3' nucleoside missing)” yielded a 3 h FOB score of 1 score 0-7.

“RNA1{[moe](A)[sp].[moe](G)p.[moe](G)p.[moe]([m5C])p.[moe](T)[sp].d(T)[sp].d(T)[sp].d(T)[sp].d(G)[sp].d(A)[sp].d(G)[sp].d(A)[sp].d(T)[sp].d(A)[sp].d(T)[sp].[moe]([m5C])p.[moe](T)p.[moe](T)[sp].[moe](G)}$$$$ (last 3' nucleoside missing)” returned a 3 h FOB score of 6 score 0-7.

As to “RNA1{[moe](A)[sp].[moe](G)p.[moe](T)p.[moe](A)p.[moe](T)[sp].d(T)[sp].d(A)[sp].d([m5C])[sp].d([m5C])[sp].d(T)[sp].d([m5C])[sp].d(T)[sp].d(A)[sp].[moe]([m5C])p.[moe](T)p.[moe](A)[sp].[moe](G)}$$$$ (last 3' nucleoside missing)”, the 3 h FOB score is 3 score 0-7.

“RNA1{[moe](A)[sp].[moe](G)p.[moe](T)p.[moe](G)p.[moe](A)[sp].d([m5C])[sp].d([m5C])[sp].d(T)[sp].d(G)[sp].d(T)[sp].d(G)[sp].d(A)[sp].d([m5C])[sp].d(T)[sp].d(A)[sp].[moe](T)p.[moe]([m5C])p.[moe](T)[sp].[moe](A)}$$$$ (last 3' nucleoside missing)” returned a 3 h FOB score of 6 score 0-7.

For “RNA1{[moe](A)[sp].[moe](G)p.[moe](T)p.[moe](G)p.[moe](T)[sp].d(G)[sp].d(T)[sp].d(A)[sp].d(T)[sp].d(T)[sp].d(A)[sp].d(G)[sp].d(G)[sp].d(A)[sp].d(T)[sp].[moe]([m5C])p.[moe]([m5C])p.[moe]([m5C])[sp].[moe](A)}$$$$ (last 3' nucleoside missing)”, the 3 h FOB score is 5 score 0-7.

“RNA1{[moe](A)[sp].[moe](G)p.[moe](T)p.[moe](G)p.[moe](T)p.[moe](G)p.d(T)[sp].d(A)[sp].d(T)[sp].d(T)[sp].d(A)[sp].d(G)[sp].d(G)[sp].d(A)[sp].d(T)[sp].d([m5C])[sp].[moe]([m5C])p.[moe]([m5C])[sp].[moe](A)}$$$$ (last 3' nucleoside missing)”: the 3 h FOB score was 4 score 0-7.

“RNA1{[moe](A)[sp].[moe](G)p.[moe](T)p.[moe](G)p.d(T)[sp].d(G)[sp].d(T)[sp].d(A)[sp].d(T)[sp].d(T)[sp].d(A)[sp].d(G)[sp].d(G)[sp].d(A)[sp].[moe](T)p.[moe]([m5C])p.[moe]([m5C])p.[moe]([m5C])[sp].[moe](A)}$$$$ (last 3' nucleoside missing)” showed a 3 h FOB score of 5 score 0-7.

Turning to “RNA1{[moe](A)[sp].[moe](G)p.[moe](T)p.[moe]([m5C])p.[moe](A)[sp].d(G)[sp].d([m5C])[sp].d([m5C])[sp].d(T)[sp].d(G)[sp].d(G)[sp].d(T)[sp].d(T)[sp].[moe](A)p.[moe](G)p.[moe]([m5C])[sp].[moe]([m5C])}$$$$ (last 3' nucleoside missing)”, the 3 h FOB score stood at 2 score 0-7.

“RNA1{[moe](A)[sp].[moe](G)p.[moe](T)p.[moe]([m5C])p.[moe](A)[sp].d(G)[sp].d([m5C])[sp].d([m5C])[sp].d(T)[sp].d(G)[sp].d(G)[sp].d(T)[sp].d(T)[sp].d(A)[sp].d(G)[sp].[moe]([m5C])p.[moe]([m5C])p.[moe](T)[sp].[moe](T)}$$$$ (last 3' nucleoside missing)” displayed a 3 h FOB score of 6 score 0-7.

Regarding “RNA1{[moe](A)[sp].[moe](G)p.[moe](T)p.[moe]([m5C])p.[moe](A)p.[moe](G)p.d([m5C])[sp].d([m5C])[sp].d(T)[sp].d(G)[sp].d(G)[sp].d(T)[sp].d(T)[sp].d(A)[sp].d(G)[sp].d([m5C])[sp].[moe]([m5C])p.[moe](T)[sp].[moe](T)}$$$$ (last 3' nucleoside missing)”, the 3 h FOB score amounted to 3 score 0-7.

The substance “RNA1{[moe](A)[sp].[moe](G)p.[moe](T)p.[moe]([m5C])p.[moe](A)p.d(G)[sp].d([m5C])[sp].d([m5C])[sp].d(T)[sp].d(G)[sp].d(G)[sp].d(T)[sp].d(T)[sp].d(A)[sp].d(G)[sp].[moe]([m5C])p.[moe]([m5C])p.[moe](T)[sp].[moe](T)}$$$$ (last 3' nucleoside missing)” registered a 3 h FOB score of 4 score 0-7.

With “RNA1{[moe](A)[sp].[moe](G)p.[moe](T)p.[moe]([m5C])p.[moe](T)[sp].d([m5C])[sp].d(A)[sp].d(G)[sp].d(T)[sp].d(T)[sp].d(T)[sp].d(T)[sp].d([m5C])[sp].d([m5C])[sp].d(T)[sp].[moe]([m5C])p.[moe]([m5C])p.[moe](A)[sp].[moe](G)}$$$$ (last 3' nucleoside missing)”, the 3 h FOB score was found to be 2 score 0-7.

“RNA1{[moe](A)[sp].[moe](G)p.[moe](T)p.[moe]([m5C])p.d(A)[sp].d(G)[sp].d([m5C])[sp].d([m5C])[sp].d(T)[sp].d(G)[sp].d(G)[sp].d(T)[sp].d(T)[sp].d(A)[sp].[moe](G)p.[moe]([m5C])p.[moe]([m5C])p.[moe](T)[sp].[moe](T)}$$$$ (last 3' nucleoside missing)” had a 3 h FOB score of 3 score 0-7.

“RNA1{[moe](A)[sp].[moe](G)p.[moe]([m5C])p.[moe](A)p.[moe](T)[sp].d(A)[sp].d(G)[sp].d(G)[sp].d(G)[sp].d(A)[sp].d(T)[sp].d(A)[sp].d(T)[sp].d([m5C])[sp].d([m5C])[sp].[moe]([m5C])p.[moe](A)p.[moe]([m5C])[sp].[moe]([m5C])}$$$$ (last 3' nucleoside missing)”: the 3 h FOB score was found to be 2 score 0-7.

The record behind these values is the OligoGym collection.
